# According to patent US9340533B2, “1,4-benzothiazepine-1-oxide derivative and pharmaceutical composition utilizing the same” (priority 2009, dated 2016):
# Columns and labels:
# [1] = tested on: left anterior descending coronary artery of porcine heart; test: Coronary relaxation of KCl-contracted porcine coronary artery strip (organ bath); conditions: Sus scrofa, read-out: concentration inducing 50% of relaxation (EC50%)
# Description: Porcine heart was purchased without regard of gender. The heart was carried in steep, cool Krebs-Henseleit solution, filled with 95% bubbling oxygen (O2) gas and bicarbonate (CO2) and the left anterior descending coronary artery of 2.5-3 mm diameter was removed. The artery was steeped in the same nutrition solution overnight in a refrigerator and the next day a specimen from a short strip removal in the endothelium (open ring) of width 3 mm was obtained. The specimen was hanged in 10 ml of the organ bath filled with Krebs-Henseleit solution, 95% bubbling oxygen (O2) and bicarbonate (CO2) at 37° C. One side was fixed and the other side was connected to the isometric transducer (T7-8-240, T7-30-240, Olientic) and the change of tension on the amplifier was used for tension recording. After confirming the state for 120 minutes under 1.5 g loading, KCl (40 mM) was added. When the contraction reached a maximum, KCl was washed out. This wash-out was repeated 4 times during the course of 15 minutes. After the stable contraction of KCl was obtained, KCl (30 mM) dissolved in saline was added. […] The Krebs-Henseleit solution without the compounds served as the control.
# [2] = tested on: chronic infarct rat; test: Norepinephrine-induced LV diastolic dysfunction in chronic infarct rat; assay type: in vivo
# Text: Male Wistar rats were used. After induction of anesthesia with 3% isoflurane inhalation, a polyethylene tube was inserted into the trachea. Respiration was subsequently controlled with an artificial ventilator with maintenance of anesthesia using 1.7% isoflurane. The chest was opened at the left third intercostals space and the pericardial membrane was incised. The left anterior descending coronary artery (LAD) was completely ligated with silk string (6.0, Ethicon) in the infarction group. Following this procedure, the chest was immediately closed, the inserted tube in the trachea was removed, and subjects returned to the breeding room after arousal.
# Two months after operation, animals were again anesthetized and intubated as described above. A micronanometer-tipped pressure catheter (2F, Millar Instruments) was inserted into the right common carotid artery into the left ventricle (LV) and a polyethylene catheter (SP10) for solution injection was inserted from the right femoral vein to infuse the physiological salt solution (PSS) or test compound solutions. After confirming stable hemodynamics for 10 minutes, 20 μg/kg/min of norepinephrine was infused for 30 minutes in the chronic infarction group. The invention compound [III] (0.1 mg/kg/min) and PSS were infused for 10 minutes after 20 minutes of administration of norepinephrine at 16.6 μL/min for test and control groups, respectively. LV minimum diastolic pressure and LV end-diastolic pressure was counted every minute for 20 heart beats. The area of myocardial infarction (infarction size) in rats was estimated using the modified method of Sandmann et al (J Cardiovasc Pharmacol 2000; 37; 64-77.) for administration of the compound of the present invention and PSS. That is, the infarct size (%) was estimated using the followed formula: […]
# Data is shown as means and standard error. The following results are shown in Table 4 (control) and Table 5 (the compound), respectively.
# [3] = tested on: Male Wistar rats; test: Comparison of heart rate, LV pressure and LV diastolic function (-dP/dt) in anesthetized rats; assay type: in vivo, rat; conditions: for Heart rate after administration / LV diastolic function (−dP/dt) after administration / LV pressure after administration: 0.3 mg/kg/min i.v. for 5 minutes, anesthetized rats; for LV diastolic function (−dP/dt) before administration / LV pressure before administration / Heart rate before administration: baseline of the same rats before infusion; for Heart rate before administration: four rats per group
# Text: Male Wistar rats weighing 280-300 g were bred. After one week, animals were anesthetized with 3% isoflurane inhalation and respiration was subsequently controlled with an artificial ventilator using 1.7% isoflurane for maintained anesthetization. A micronanometer-tipped pressure catheter (2F, Millar Instruments) was inserted from the right common carotid artery into the left ventricle (LV) and a polyethylene catheter (SP10) for solution injection was inserted from the right femoral vein and the compounds [III] and [II] (R═H) were injected. After confirming stable hemodynamics for 10 minutes, heart rate, LV pressure, and maximal negative first derivative of LV pressure (−dP/dt) were investigated continuously. Each compound [III] or [II] was infused at 0.3 mg/kg/min for 5 minutes. Four rats in each group were evaluated. The solvent used consisted of 0.05% citric acid and 5% sorbitol. Each parameter before and after 5 minutes of administration was determined for 20 heart beats.
# [4] = Solubility in solvents; assay type: physicochemical
# Text: The compound of the present invention, 3-4-benzylpiperidin-1-yl)propionyl-7-methoxy-2,3,4,5-tetrahydro-1,4-benzothiazepine-1-oxide, which is produced by an oxidation of the hydrochloride salt represented by formula [V] by the oxidant, isolated by silica gel chromatography using chloroform-methanol as a solvent, followed by removed the solvent from the chloroform-methanol solution by azeotropic distillation, and finally removed by the residual solvent in argon. The purity of compound presented by formula [III], thus obtained is 90% or higher, and a molecular weight (mw) of the compound is 440.61. […] The compound has stereoisomers in the amide form, is confirmed to exist at the rate of about 2:3 in of amide parts using H-NMR analysis at room temperature.
# [5] = tested on: normal rat; test: LV diastolic function in normal rat (LV catheter, i.v. infusion); assay type: in vivo; conditions: 0.1 mg/kg/min i.v. infusion for 10 minutes, before administration set at 100%, mean and standard deviation
# Text: (1) After breeding for 1 week, male Wistar rats were anesthetized with 3% isoflurane inhalation, followed by an insertion of a tube in the trachea and respiration subsequently controlled with an artificial ventilator using 1.7% isoflurane for maintained anesthetization. A micrometer-tipped pressure catheter (Manufactured by 2F, Millar Instruments) was inserted from the right common carotid artery into the left ventricle (LV) and a polyethylene catheter (SP10) was inserted into the right femoral vein for the compound of the present invention or physiological salt solution (PSS) injections. After confirming stable hemodynamics for 10 minutes, LV minimum diastolic pressure and LV end-diastolic pressure was counted every minute. The compound [III] (0.1 mg/kg/min) of the present invention or PSS was infused at 16.6 μL/min for 10 minutes in the test and control groups, respectively.
# LV minimum diastolic pressure and LV end-diastolic pressure was counted every minute for 20 heart beats before and after administration of the compound. […] Data is shown as mean and standard deviation.
# [6] = Skin irritation
# [7] = tested on: Male Wistar rats; test: Norepinephrine-induced hypertension in rats, LV pressure; assay type: in vivo, rat; conditions: under norepinephrine 20 μg/kg/min
# Description: Male Wistar rats weighing 260 g were anesthetized with 3% isoflurane inhalation and respiration was subsequently controlled with an artificial ventilator using 1.7% isoflurane for maintained anesthetization. A micronanometer-tipped pressure catheter (2F, Millar Instruments) was inserted from the right common carotid artery into the left ventricle (LV) and a polyethylene catheter (SP 10) for solution injection was inserted from the right femoral vein and test solutions were injected. After confirming stable hemodynamics for 10 minutes, norepinephrine (20 μg/kg/min) was infused for 10 minutes followed by the infusion of the invention compound [III] (0.1 mg/kg/min) for 10 minutes. This invention compound [III] was infused three times with intervals of 10 minutes each. LV pressure was determined for 20 heart beats before and after administration. The infusion speed of each solution was 16.6 μL/min.
# [8] = Stability of the compound at room temperature; assay type: physicochemical; conditions: exposure to oxygen, humidity, acid and alkali at room temperature
# [9] = chronic infarct rat, baseline before norepinephrine infusion
# [10] = chronic infarct rat, norepinephrine 20 μg/kg/min infusion
# [11] = chronic infarct rat under norepinephrine 20 μg/kg/min, 0.1 mg/kg/min infused 10 minutes, before administration set at 100%, mean and standard error
SMILES,EC50 [1] [µM],Heart rate after administration [3] [beat/min],LV diastolic function (−dP/dt) after administration [3] [mmHg/sec],LV pressure after administration [3] [mmHg],LV diastolic function (−dP/dt) before administration [3] [mmHg/sec],LV pressure before administration [3] [mmHg],Heart rate before administration [3] [beat/min],further results
"COc1ccc2c(c1)CN(C(=O)CCN1CCC(Cc3ccc(O)cc3)CC1)CC[S+]2[O-] (stereo not drawn) [compound [IV], 4-{3-[4-(4-hydroxybenzyl)piperadin-1-yl]propionyl}-7-methoxy-2,3,4,5-tetrahydro-1,4-benzothiazepine-1-oxide]",100,–,–,–,–,–,–,–
"NC[C@H](O)c1ccc(O)c(O)c1 [Norepinephrine, norepinephrine]",–,–,–,–,–,–,–,"LV end-diastolic pressure before administration of Norepinephrine [2, 9]: 6.5 ± 0.7 mmHg; LV minimum diastolic pressure before administration of Norepinephrine [2, 9]: 4.5 ± 0.8 mmHg; LV end-diastolic pressure after administration of Norepinephrine [2, 10]: 25.8 ± 1.1 mmHg; LV minimum diastolic pressure after administration of Norepinephrine [2, 10]: 18.5 ± 1.2 mmHg"
"COc1ccc2c(c1)CN(C(=O)CCN1CCC(Cc3ccccc3)CC1)CCS2 [compound [II] (R═H), 4-[3-(4-benzylpiperidin-1-yl)propionyl]-7-methoxy-2,3,4,5-tetrahydro-1,4-benzothiazepine, reference compound]",–,320.2±24.2,−5311.0±961.4,100.8±6.0,−5973.4±1121.3,103.7±4.2,370.1±18.9,–
"COc1ccc2c(c1)CN(C(=O)CCN1CCC(Cc3ccccc3)CC1)CC[S+]2[O-] (stereo not drawn) [compound [III], 4-[3-(4-benzylpiperidin-1-yl)propionyl]-7-methoxy-2,3,4,5-tetrahydro-1,4-benzothiazepine-1-oxide]",42,360.9±29.1,−5982.6±520.1,106.3±5.5,−5631.4±395.9,106.0±5.8,361.7±26.5,"LV end-diastolic pressure after administration [2, 11]: 78.4 ± 6.6%; LV minimum diastolic pressure after administration [2, 11]: 76.0 ± 5.2%; solubility in solvents [4]: easily dissolved in ethanol and dimethysulfoxide (DMSO); LV end-diastolic pressure after administration [5]: 78.4 ± 6.6%; LV minimum diastolic pressure after administration [5]: 76.0 ± 5.2%; skin irritation [6]: irritating to the skin; LV pressure before administration ([7]; before compound infusion): 189.2±14.0 mmHg; LV pressure after administration ([7]; compound 0.1 mg/kg/min for 10 minutes, infused three times): 180.3±14.9 mmHg; stability [8]: stable against exposure of oxygen, humidity, acid and alkali at room temperature"
